Assay results reported in patent publication US9849100B2, “Pharmaceutical compositions suitable for parenteral administration comprising aqueous suspensions of benzylamine derivatives having low solubilities” (KalVista Pharmaceuticals Limited, priority 2013, dated 2017).
Like-named read-outs stand apart in the source and are kept apart here.

How the values were obtained:
[1] = system: diabetic rats; details: cited from earlier work
[2] = Ocular tissue concentration study at twelve weeks following a single intravitreal dose in pigmented rabbits; format: in vivo; details: both sexes, Dutch-belted, rabbit, other: intravitreal, single bilateral intravitreal dose of suspension, Day 86
Procedure: An aqueous suspension pharmaceutical composition of milled N—[(R)-1-[(S)-1-(4-aminomethyl-benzylcarbamoyl)-2-phenyl-ethylcarbamoyl]-2-(4-ethoxy-phenyl)-ethyl]-benzamide hydrochloride was prepared according to Example B1. The resulting nominal 50 mg/mL suspension was diluted with the milling vehicle (prepared according to Example B1) into dosing formulations for intravitreal injection. Five experimentally naïve male and female Dutch-belted rabbits, approximately 5 months old and weighing 1.6 to 2.2 kilograms at the outset of the study were assigned to treatment groups as shown in Table iv. [table] Animals were administered bilateral intravitreal doses of the suspension formulations once on Day 1. On Day 86, the vitreous humors and retina (with choroid) tissues were analysed for active ingredient concentration.

| concentration at 86 day ([2]; retina (with choroid), 15 μg/eye, low-dose group (15 μg/eye), read-out: average retina (with choroid) tissue concentration) | concentration at 86 day ([2]; retina (with choroid), 150 μg/eye, high-dose group (150 μg/eye), read-out: average retina (with choroid) tissue concentration) | concentration at 86 day ([2]; vitreous humor, 15 μg/eye, low-dose group (15 μg/eye), read-out: vitreous humor concentrations (range)) | concentration at 86 day ([2]; vitreous humor, 150 μg/eye, high-dose group (150 μg/eye), read-out: average vitreous humor concentration) | concentration at 86 day ([2]; vitreous humor, 150 μg/eye, high-dose group (150 μg/eye), read-out: vitreous humor concentrations (range)) | SMILES | retinal blood flow abnormalities [1] | retinal vascular permeability [1] |
| --- | --- | --- | --- | --- | --- | --- | --- |
|  |  |  |  |  | N=C(N)c1ccc(CNC(=O)c2cnn(Cc3ccccc3)c2)cc1 [ASP-440] | ameliorated | ameliorated |
| 1620 ng/g | 44500 ng/g | 0.000216 to 0.935 µg/mL | 27.8 µg/mL | 2.5 to 56.5 µg/mL | CCOc1ccc(C[C@@H](NC(=O)c2ccccc2)C(=O)N[C@@H](Cc2ccccc2)C(=O)NCc2ccc(CN)cc2)cc1 [active ingredient, N—[(R)-1-[(S)-1-(4-aminomethyl-benzylcarbamoyl)-2-phenyl-ethylcarbamoyl]-2-(4-ethoxy-phenyl)-ethyl]-benzamide] |  |  |
